# Read-outs that look alike come from different tables or passages of the source.
# Legend:
# [1] = in vivo; conditions: CD1, mouse, plasma, oral, 30 mg/kg; read-out: Free concentration (nM) at timepoint after 30 mg/kg po
# [2] = biological target: T1, SIK3 (Homo sapiens (Human), UniProt Q9Y2K2)
# [3] = system: NFKB activity; conditions: PANC-1 reporter cells, 10 ng/ml rHuTNF
# [4] = system: HDAC4 phosphorylation; conditions: PANC-1 cells, 10 ng/mL rHuTNF, 3 h
# [5] = system: MC38 cells; assay: cells; conditions: Mus musculus, MC-38, 72 h, read-out: MC38 IC50 (nM at 100 ng/mL TNF)
# [6] = biological target: T1, SIK3; assay: biochemical
# [7] = biological target: ABL1 wt (Homo sapiens (Human), UniProt P00519); assay type: biochemical
# ABL1 wt, sequence (P00519 118-535 limits assumed): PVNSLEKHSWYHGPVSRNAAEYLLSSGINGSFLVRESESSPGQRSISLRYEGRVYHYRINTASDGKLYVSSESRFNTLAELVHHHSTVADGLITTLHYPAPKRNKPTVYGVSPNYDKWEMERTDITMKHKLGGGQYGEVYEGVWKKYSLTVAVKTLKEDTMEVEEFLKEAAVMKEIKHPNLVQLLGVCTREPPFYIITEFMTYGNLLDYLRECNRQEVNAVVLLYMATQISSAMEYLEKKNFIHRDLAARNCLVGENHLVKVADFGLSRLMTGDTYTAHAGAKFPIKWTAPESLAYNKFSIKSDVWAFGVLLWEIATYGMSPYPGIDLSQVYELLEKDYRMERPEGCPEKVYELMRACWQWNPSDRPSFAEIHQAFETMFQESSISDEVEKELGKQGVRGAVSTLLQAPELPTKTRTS
# [8] = biological target: SRC (GST-HIS-tag) (Homo sapiens (Human), UniProt P12931); assay type: biochemical
# [9] = biological target: SIK1 (Homo sapiens (Human), UniProt P57059); assay type: biochemical
# [10] = biological target: SIK2 (Homo sapiens (Human), UniProt Q9H0K1); assay type: biochemical
# [11] = physchem; assay type: physicochemical
# [12] = human, microsomes
# [13] = mouse, microsomes
# [14] = system: human plasma-proteins
# [15] = system: murine plasma-proteins
# [16] = in vitro; conditions: human, microsomes
# [17] = in vitro; conditions: mouse, microsomes
SMILES,concentration at 2 h [1] [nM],concentration at 6 h [1] [nM],concentration at 12 h [1] [nM],IC50 [2] [nM],IC50 [5] [nM],IC50 [6] [nM],IC50 [7] [nM],IC50 [8] [nM],IC50 [9] [nM],IC50 [10] [nM],solubility kinetic [11] [µM],solubility kinetic ([11]; kinetic from dmso stock) [µM],Intrinsic clearance (L/min/mg) [12] [µL/min/mg],% Remaining at 40 min (%) [12] [%],Intrinsic clearance (L/min/mg) [13] [µL/min/mg],% Remaining at 40 min (%) [13] [%],Percentage unbound (%) [14] [%],Percentage unbound (%) [15] [%],half-life [16] [h],half-life [17] [h],further results
"Cc1nc(Nc2ncc(C(=O)Nc3c(C)csc3Cl)s2)cc(N2CCN(C)CC2)n1 [Compound D9, N-(2-chloro-4-methylthiophen-3-yl)-2-((2-methyl-6-(4-methylpiperazin-1-yl)pyrimidin-4-yl)amino)thiazole-5-carboxamide]",44,8,2.71,~60,< 100,–,–,–,–,–,–,–,–,–,–,–,–,–,–,–,Inhibition of NFKB activity [3]: +; Inhibition of HDAC4 phosphorylation [4]: +
"Cc1nc(Nc2ncc(C(=O)Nc3c(Cl)csc3C)s2)cc(N2CCN(CCO)CC2)n1 [Compound D1, N-(4-chloro-2-methylthiophen-3-yl)-2-((6-(4-(2-hydroxyethyl)piperazin-1-y1)-2-methylpyrimidin-4-yl)amino)thiazole-5-carboxamidexs]",80,4,2.14,–,< 200,40 to 45,–,–,–,–,–,–,–,–,–,–,–,–,–,–,–
"Cc1nc(Nc2ncc(C(=O)Nc3ncccc3C)s2)cc(N2CCN(CCO)CC2)n1 [Compound C2, 2-((6-(4-(2-hydroxyethyl)piperazin-1-yl)-2-methylpyrimidin-4-yl)amino)-N-(3-methylpyridin-2-yl)thiazole-5-carboxamide]",–,–,–,–,–,–,14.4,< 1.5,177,427,160,128 to 195,< 17,69,35,48,9,30,> 1.43,0.667,–
Cc1nc(Nc2ncc(C(=O)Nc3c(C)noc3C)s2)cc(N2CCN(CCO)CC2)n1 [Compound C9],–,–,–,800,–,–,27.4,6.44,169,232,174,128 to 195,< 14,89,< 14,83,6,44,> 1.67,> 1.67,–
"Cc1nc(Nc2ncc(C(=O)Nc3c(Cl)csc3Cl)s2)cc(N2CCN(CCO)CC2)n1 [Compound D7, N-(2,4-dichlorothiophen-3-yl)-2-((6-(4-(2-hydroxyethyl)piperazin-1-yl)-2-methylpyrimidin-4-yl)amino)thiazole-5-carboxamide]",43,5,1.1,–,< 200,15 to 20,–,–,–,–,–,–,–,–,–,–,–,–,–,–,–

# Reference: patent publication US12172993B2 (priority 2018, dated 2024)
